Laboratory results: US20080181928A1, “COATINGS FOR IMPLANTABLE MEDICAL DEVICES FOR LIPOSOME DELIVERY” (MIV Therapeutics, Inc., priority 2006, published 2008)

Columns and labels:
THP-1 cells = assay: THP-1 cell growth in presence of ZA lipid coated stents or molecular ZA (Examples 6 and 7); type: cell-based; conditions: Homo sapiens, THP-1, 96 h, 4 days of culture
Method: To monitor cell growth in the presence of liposomes containing ZA, 5×10^5 THP-1 cells are plated into 24—well cluster plates (Corning Inc.) in complete RPMI-1640 medium at 1 mL volume. About 3-4 hours later, the lipid coated stents of Example 5 are added into the THP-1 cell culture (5×10^5 cells/mL). The cells in the presence of medium alone or treated with empty liposomes (no drug) served as a control. ZA in molecular form was added for comparison at a concentration of 5 and 1 μg/mL. After 4 days of culture, the cells in each culture were harvested and counted using a hemocytometer; viability was evaluated by trypan blue exclusion method.
The two sets of samples were placed in cell cultures containing THP-1 macrophage type cells. HAp coated stents impregnated with molecular ZA (configuration B) are placed in 2 ml PBS dissolution media and rotated at a speed of 20 rpm at 37.2° C. Samples are taken at various time intervals and analyzed using HPLC.

[1] = system: THP-1 (Human Monocytic Leukemia) cell culture; assay: THP-1 cell growth inhibition by ZA released from lipid bilayer stent coating (Example 16); type: cell-based; conditions: THP-1, 96 h, 4 days
Method: Hydroxyapatite coated stents were further coated with the lipid film in a manner similar to that described in Examples 12 and 13, except that the film contained 2 μg of zoledronic acid (ZA). The stents were added to THP-1 (Human Monocytic Leukemia) cell culture (5×10^5 cells/mL) and compared to ZA alone added at concentration of 5 and 1 μg/mL. After 4 days, the cells in each culture were harvested and counted.

**Q.** Which inhibition at 1 µg/mL (THP-1 cells; 1 μg/mL) does the source give for `O=P(O)(O)C(O)(Cn1ccnc1)P(=O)(O)O` [ZA, zoledronic acid] here?
**A.** 0.6%

**Q.** And the inhibition at 5 µg/mL (THP-1 cells; 5 μg/mL)?
**A.** 20%

**Q.** And the inhibition at 1 µg/mL ([1]; 1 μg/mL)?
**A.** 0.6%

**Q.** And the inhibition at 5 µg/mL ([1]; 5 μg/mL)?
**A.** 20%
